Assay results from patent publication US11591365B2, “BCL9 peptides and variants thereof” (WntRx Pharmaceuticals Inc., priority 2017, dated 2023).
Where a SMILES comes first, the peptide text is derived from it. Bridges are numbered along the chain shown (N, C = ends). [ ]: non-standard residue; d: D form. 2Nal = N[C@@H](Cc1ccc2ccccc2c1)C(=O)O; Cba = N[C@@H](CC1CCC1)C(=O)O; S5 = C=CCCC[C@](C)(N)C(=O)O

system: Colo320DM; assay: Colo320DM cell viability; type: cell-based, human
Text: In some embodiments, a polypeptide described herein inhibits binding of BLC9 to β-catenin when assessed in a cell-viability assay. In some embodiments, the cell-viability assay is a CellTiterGlo luminescent assay, wherein the viability of cells is quantitatively measured. Various cell lines, transformed cell lines or primary cells derived from a healthy subject or subject suffering from a disease can be used in this assay.

SMILES | IC50 [µM]
CC[C@H](C)[C@@H]1NC(=O)[C@@](C)(NC(=O)[C@H](CCCNC(=N)N)NC(=O)[C@H](CC(C)C)NC(=O)[C@@H](NC(=O)[C@H](CCC(N)=O)NC(=O)[C@H](CC(C)C)NC(=O)[C@H](CO)NC(=O)[C@H](CCCNC(=N)N)NC(=O)[C@H](CCC(N)=O)NC(=O)[C@H](CCCNC(=N)N)N(C)C(=O)[C@H](Cc2c[nH]cn2)NC(C)=O)[C@@H](C)O)CCCC=CCCC[C@@](C)(C(=O)N[C@@H](CC2CCC2)C(=O)N[C@@H](Cc2ccc3ccccc3c2)C(N)=O)NC(=O)[C@H](CCCNC(=N)N)NC(=O)[C@H](CCC(N)=O)NC1=O (single isomer, unassigned) [SEQ ID NO: 158, H(R-Me)QRSLQTLRXIQRX(CBA)(2-Nal)] | 3.32
CC[C@H](C)[C@@H]1NC(=O)[C@@](C)(NC(=O)[C@H](CCCNC(=N)N)NC(=O)[C@H](CC(C)C)NC(=O)[C@@H](NC(=O)[C@H](CCC(N)=O)NC(=O)[C@H](CC(C)C)NC(=O)[C@H](CO)NC(=O)[C@H](CCCNC(=N)N)NC(=O)[C@H](CCC(N)=O)NC(=O)[C@H](CCCNC(=N)N)N(C)C(=O)[C@H](Cc2c[nH]cn2)NC(C)=O)[C@@H](C)O)CCCC=CCCC[C@@](C)(C(=O)N[C@@H](CC2CCC2)C(=O)N[C@@H](Cc2ccc3ccccc3c2)C(N)=O)NC(=O)[C@H](CCCNC(=N)N)NC(=O)[C@H](CCC(N)=O)NC1=O (single isomer, unassigned) [SEQ ID NO: 166, H(N-methylR)QRSLQTLRXIQRX(CBA)(2-Nal)] | 4.17
CC[C@H](C)[C@@H]1NC(=O)[C@@](C)(NC(=O)[C@H](CCCNC(=N)N)NC(=O)[C@H](CC(C)C)NC(=O)[C@@H](NC(=O)[C@H](CCC(N)=O)NC(=O)[C@H](CC(C)C)NC(=O)[C@H](CO)NC(=O)[C@H](CCCNC(=N)N)NC(=O)[C@H](CCC(N)=O)NC(=O)[C@H](CCCNC(=N)N)NC(=O)[C@H](Cc2c[nH]cn2)NC(C)=O)[C@@H](C)O)CCCC=CCCC[C@@](C)(C(=O)N[C@@H](Cc2ccc(Cl)cc2)C(=O)N[C@@H](Cc2ccc3ccccc3c2)C(N)=O)NC(=O)[C@H](CCCNC(=N)N)NC(=O)[C@H](CCC(N)=O)NC1=O (single isomer, unassigned) [SEQ ID NO: 179, HRQRSLQTLRXIQRX(Phe-4-Cl)(2-Nal)] | 4.68
CC[C@H](C)[C@@H]1NC(=O)[C@@](C)(NC(=O)[C@H](CCCNC(=N)N)NC(=O)[C@H](CC(C)C)NC(=O)[C@@H](NC(=O)[C@H](CCC(N)=O)NC(=O)[C@H](CC(C)C)NC(=O)[C@H](CO)NC(=O)[C@H](CCCNC(=N)N)NC(=O)[C@H](CCC(=O)O)NC(=O)[C@H](CCCNC(=N)N)NC(C)=O)[C@@H](C)O)CCCC=CCCC[C@@](C)(C(=O)N[C@@H](CC(C)C)C(=O)N[C@@H](Cc2ccc3ccccc3c2)C(N)=O)NC(=O)[C@H](CCCNC(=N)N)NC(=O)[C@H](CCC(N)=O)NC1=O [SEQ ID NO: 5, RERSLQTLRXIQRXL(2-Nal)] (Ac-RERSLQTLR[S5]IQR[S5]L[2Nal]-NH2; staple 10-14) | 6.8
CC[C@H](C)[C@@H]1NC(=O)[C@@](C)(NC(=O)[C@H](CCCNC(=N)N)NC(=O)[C@H](CC(C)C)NC(=O)[C@@H](NC(=O)[C@H](CCC(N)=O)NC(=O)[C@H](CC(C)C)NC(=O)[C@H](CO)NC(=O)[C@H](CCCNC(=N)N)NC(=O)[C@H](CCC(=O)O)NC(=O)[C@H](CCCNC(=N)N)NC(=O)[C@H](Cc2c[nH]cn2)NC(C)=O)[C@@H](C)O)CCCC=CCCC[C@@](C)(C(=O)N[C@@H](CC(C)C)C(=O)N[C@@H](Cc2ccc3ccccc3c2)C(N)=O)NC(=O)[C@H](CCCNC(=N)N)NC(=O)[C@H](CCC(N)=O)NC1=O [SEQ ID NO: 6, HRERSLQTLRXIQRXL(2-Nal)] (Ac-HRERSLQTLR[S5]IQR[S5]L[2Nal]-NH2; staple 11-15) | 5.3
CC[C@H](C)[C@@H]1NC(=O)[C@@](C)(NC(=O)[C@H](CCCNC(=N)N)NC(=O)[C@H](CC(C)C)NC(=O)[C@@H](NC(=O)[C@H](CCC(N)=O)NC(=O)[C@H](CC(C)C)NC(=O)[C@H](CO)NC(=O)[C@H](CCCNC(=N)N)NC(=O)[C@H](CCC(=O)O)NC(=O)[C@H](CCCNC(=N)N)NC(=O)[C@H](Cc2c[nH]cn2)NC(=O)[C@H](CCC(=O)O)NC(C)=O)[C@@H](C)O)CCCC=CCCC[C@@](C)(C(=O)N[C@@H](CC(C)C)C(=O)N[C@@H](Cc2ccc3ccccc3c2)C(N)=O)NC(=O)[C@H](CCCNC(=N)N)NC(=O)[C@H](CCC(N)=O)NC1=O [SEQ ID NO: 7, EHRERSLQTLRXIQRXL(2-Nal)] (Ac-EHRERSLQTLR[S5]IQR[S5]L[2Nal]-NH2; staple 12-16) | 9.1
CC[C@H](C)[C@@H]1NC(=O)[C@@](C)(NC(=O)[C@H](CCCNC(=N)N)NC(=O)[C@H](CC(C)C)NC(=O)[C@@H](NC(=O)[C@H](CCC(N)=O)NC(=O)[C@H](CC(C)C)NC(=O)[C@H](CO)NC(=O)[C@H](CCCNC(=N)N)NC(=O)[C@H](CCC(=O)O)NC(=O)[C@H](CCCNC(=N)N)NC(=O)[C@H](Cc2c[nH]cn2)NC(=O)[C@H](CCC(=O)O)NC(=O)[C@H](CC(C)C)NC(=O)[C@H](CCC(N)=O)NC(C)=O)[C@@H](C)O)CCCC=CCCC[C@@](C)(C(=O)N[C@@H](CC(C)C)C(=O)N[C@@H](Cc2ccc3ccccc3c2)C(N)=O)NC(=O)[C@H](CCCNC(=N)N)NC(=O)[C@H](CCC(N)=O)NC1=O [SEQ ID NO: 8, QLEHRERSLQTLRXIQRXL(2-Nal)] (Ac-QLEHRERSLQTLR[S5]IQR[S5]L[2Nal]-NH2; staple 14-18) | 6.3

The next lines start with the values.

IC50 [µM] | SMILES
3.07 | CC[C@H](C)[C@@H]1NC(=O)[C@@](C)(NC(=O)[C@H](CCCNC(=N)N)NC(=O)[C@H](CC(C)C)NC(=O)[C@@H](NC(=O)[C@H](CCC(N)=O)N(C)C(=O)[C@H](CC(C)C)NC(C)=O)[C@@H](C)O)CCCC=CCCC[C@@](C)(C(=O)N[C@@H](CC2CCC2)C(=O)N[C@@H](Cc2ccc3ccccc3c2)C(=O)NCCC(=O)NCCC(N)=O)NC(=O)[C@H](CCCNC(=N)N)NC(=O)[C@H](CCC(N)=O)NC1=O (single isomer, unassigned) [SEQ ID NO: 111, L(N-methylQ)TLRXIQRX(CBA)(2-Nal)(β-Ala)(β-Ala)]
1.9 | CC[C@H](C)[C@@H]1NC(=O)[C@@](C)(NC(=O)[C@H](CCCNC(=N)N)NC(=O)[C@H](CC(C)C)NC(=O)[C@@H](NC(=O)[C@H](CCC(N)=O)NC(=O)[C@H](CC(C)C)NC(=O)[C@H](CO)NC(=O)[C@H](CCCNC(=N)N)NC(=O)[C@H](CCC(=O)O)NC(=O)[C@H](CCCNC(=N)N)NC(=O)[C@H](Cc2c[nH]cn2)NC(=O)[C@H](CCC(=O)O)NC(C)=O)[C@@H](C)O)CCCC=CCCC[C@@](C)(C(=O)N[C@@H](CC2CCC2)C(=O)N[C@@H](Cc2ccc3ccccc3c2)C(N)=O)NC(=O)[C@H](CCCNC(=N)N)NC(=O)[C@H](CCC(N)=O)NC1=O [SEQ ID NO: 9, EHRERSLQTLRXIQRX(CBA)(2-Nal)] (Ac-EHRERSLQTLR[S5]IQR[S5][Cba][2Nal]-NH2; staple 12-16)
1.51 | CC[C@H](C)[C@@H]1NC(=O)[C@@](C)(NC(=O)[C@H](CCCNC(=N)N)NC(=O)[C@H](CC(C)C)NC(=O)[C@@H](NC(=O)[C@H](CCC(N)=O)NC(=O)[C@H](CC(C)C)NC(=O)[C@H](CO)NC(=O)[C@H](CCCNC(=N)N)NC(=O)[C@H](CCC(=O)O)NC(=O)[C@H](CCC(N)=O)NC(=O)[C@H](Cc2c[nH]cn2)NC(C)=O)[C@@H](C)O)CCCC=CCCC[C@@](C)(C(=O)N[C@@H](CC(C)C)C(=O)N[C@@H](Cc2ccc3ccccc3c2)C(N)=O)NC(=O)[C@H](CCCNC(=N)N)NC(=O)[C@H](CCC(N)=O)NC1=O [SEQ ID NO: 11, HQERSLQTLRXIQRXL(2-Nal)] (Ac-HQERSLQTLR[S5]IQR[S5]L[2Nal]-NH2; staple 11-15)
1.61 | CC[C@H](C)[C@@H]1NC(=O)[C@@](C)(NC(=O)[C@H](CCCNC(=N)N)NC(=O)[C@H](CC(C)C)NC(=O)[C@@H](NC(=O)[C@H](CCC(N)=O)NC(=O)[C@H](CC(C)C)NC(=O)[C@H](CO)NC(=O)[C@H](CCCNC(=N)N)NC(=O)[C@H](CCC(=O)O)NC(=O)[C@H](CCCNC(=N)N)NC(C)=O)[C@@H](C)O)CCCC=CCCC[C@@](C)(C(=O)N[C@@H](CC2CCC2)C(=O)N[C@@H](Cc2ccc3ccccc3c2)C(N)=O)NC(=O)[C@H](CCCNC(=N)N)NC(=O)[C@H](CCC(N)=O)NC1=O [SEQ ID NO: 13, RERSLQTLRXIQRX(CBA)(2-Nal)] (Ac-RERSLQTLR[S5]IQR[S5][Cba][2Nal]-NH2; staple 10-14)
1.49 | CC[C@H](C)[C@@H]1NC(=O)[C@@](C)(NC(=O)[C@H](CCCNC(=N)N)NC(=O)[C@H](CC(C)C)NC(=O)[C@@H](NC(=O)[C@H](CCC(N)=O)NC(=O)[C@H](CC(C)C)NC(=O)[C@H](CO)NC(=O)[C@H](CCCNC(=N)N)NC(=O)[C@H](CCC(=O)O)NC(=O)[C@H](CCCNC(=N)N)NC(=O)[C@H](Cc2c[nH]cn2)NC(C)=O)[C@@H](C)O)CCCC=CCCC[C@@](C)(C(=O)N[C@@H](CC2CCC2)C(=O)N[C@@H](Cc2ccc3ccccc3c2)C(N)=O)NC(=O)[C@H](CCCNC(=N)N)NC(=O)[C@H](CCC(N)=O)NC1=O [SEQ ID NO: 14, HRERSLQTLRXIQRX(CBA)(2-Nal)] (Ac-HRERSLQTLR[S5]IQR[S5][Cba][2Nal]-NH2; staple 11-15)
3.24 | CC[C@H](C)[C@@H]1NC(=O)[C@@](C)(NC(=O)[C@H](CCCNC(=N)N)NC(=O)[C@H](CC(C)C)NC(=O)[C@@H](NC(=O)[C@H](CCC(N)=O)NC(=O)[C@H](CC(C)C)NC(=O)[C@H](CO)NC(=O)[C@H](CCCNC(=N)N)NC(=O)[C@H](CCC(=O)O)NC(=O)[C@H](CCCNC(=N)N)NC(=O)[C@H](Cc2c[nH]cn2)NC(C)=O)[C@@H](C)O)CCCC=CCCC[C@@](C)(C(=O)N[C@@H](CC(C)C)C(=O)N[C@@H](Cc2ccc3ccccc3c2)C(N)=O)NC(=O)[C@H](C)NC(=O)[C@H](CCC(N)=O)NC1=O [SEQ ID NO: 28, HRERSLQTLRXIQAXL(2-Nal)] (Ac-HRERSLQTLR[S5]IQA[S5]L[2Nal]-NH2; staple 11-15)
